Results: ChEMBL document CHEMBL1149237, “Design and synthesis of benzofused heterocyclic RXR modulators” (Bioorg Med Chem Lett, 2004)

Assays:
Cercopithecidae = assay: RAR agonist synergy calculated using 3 nM of TTNPB; assay type: functional
[1] = target: T1, Retinoic acid receptor RXR-alpha (Homo sapiens, UniProt P19793); assay: Effective concentration for antagonistic activity against RXR-alpha expressed in CV-1 cells; assay type: functional, cell-based, Cercopithecidae
T1 sequence (P19793 whole entry): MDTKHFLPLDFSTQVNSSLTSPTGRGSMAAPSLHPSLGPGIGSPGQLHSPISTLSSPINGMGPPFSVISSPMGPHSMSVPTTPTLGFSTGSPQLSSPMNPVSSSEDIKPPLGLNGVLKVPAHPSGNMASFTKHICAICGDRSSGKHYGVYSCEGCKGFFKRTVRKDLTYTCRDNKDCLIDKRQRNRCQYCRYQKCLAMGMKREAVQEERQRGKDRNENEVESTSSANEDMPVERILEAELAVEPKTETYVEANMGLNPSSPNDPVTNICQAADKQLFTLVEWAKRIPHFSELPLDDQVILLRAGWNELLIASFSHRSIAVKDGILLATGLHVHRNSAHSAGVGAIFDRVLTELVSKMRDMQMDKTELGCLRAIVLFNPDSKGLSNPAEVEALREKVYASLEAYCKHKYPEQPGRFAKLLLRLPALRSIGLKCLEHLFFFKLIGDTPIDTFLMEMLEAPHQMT

[2] = target: T2, Retinoic acid receptor RXR-alpha (Homo sapiens) (UniProt P19793); assay: Agonistic efficacy in CV-1 cells (LGD1069 was used as reference); assay type: functional, cell-based; details: Cercopithecidae
T2 sequence (whole entry): T1 sequence (P19793 whole entry)

[3] = target: T2, Retinoic acid receptor RXR-alpha (Homo sapiens); assay: Antagonistic efficacy in CV-1 cells (LGD1069 was used as reference); assay type: functional, cell-based; details: Cercopithecidae
[4] = target: T1, Retinoic acid receptor RXR-alpha; assay: Ability to displace [3H]9-cis-RA from Retinoid X receptor alpha in CV-1 cells; assay type: cell-based, Cercopithecidae
[5] = target: T3, Retinoic acid receptor gamma (Homo sapiens, UniProt P13631); assay: Ability to displace [3H]ATRA from Retinoic acid receptor gamma in CV-1 cells; assay type: cell-based, Cercopithecidae
T3 sequence (P13631 whole entry): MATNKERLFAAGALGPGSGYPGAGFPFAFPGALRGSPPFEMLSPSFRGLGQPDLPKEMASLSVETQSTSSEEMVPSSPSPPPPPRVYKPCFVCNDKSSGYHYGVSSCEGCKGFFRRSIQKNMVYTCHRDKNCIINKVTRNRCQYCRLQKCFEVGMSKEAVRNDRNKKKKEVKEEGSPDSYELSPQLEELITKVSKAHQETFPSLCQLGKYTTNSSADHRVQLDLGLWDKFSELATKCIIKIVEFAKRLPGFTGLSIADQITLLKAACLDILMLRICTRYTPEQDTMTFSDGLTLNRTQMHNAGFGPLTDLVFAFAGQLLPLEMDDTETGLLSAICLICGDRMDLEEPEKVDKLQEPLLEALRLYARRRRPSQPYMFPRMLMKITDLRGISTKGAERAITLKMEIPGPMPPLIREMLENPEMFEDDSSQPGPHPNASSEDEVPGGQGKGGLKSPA

[6] = target: T4, Peroxisome proliferator-activated receptor gamma (Homo sapiens) (UniProt P37231); assay: Ratio between effective concentrations (Agonist) in PPAR gamma; assay type: functional; details: Cercopithecidae
T4 sequence (whole entry): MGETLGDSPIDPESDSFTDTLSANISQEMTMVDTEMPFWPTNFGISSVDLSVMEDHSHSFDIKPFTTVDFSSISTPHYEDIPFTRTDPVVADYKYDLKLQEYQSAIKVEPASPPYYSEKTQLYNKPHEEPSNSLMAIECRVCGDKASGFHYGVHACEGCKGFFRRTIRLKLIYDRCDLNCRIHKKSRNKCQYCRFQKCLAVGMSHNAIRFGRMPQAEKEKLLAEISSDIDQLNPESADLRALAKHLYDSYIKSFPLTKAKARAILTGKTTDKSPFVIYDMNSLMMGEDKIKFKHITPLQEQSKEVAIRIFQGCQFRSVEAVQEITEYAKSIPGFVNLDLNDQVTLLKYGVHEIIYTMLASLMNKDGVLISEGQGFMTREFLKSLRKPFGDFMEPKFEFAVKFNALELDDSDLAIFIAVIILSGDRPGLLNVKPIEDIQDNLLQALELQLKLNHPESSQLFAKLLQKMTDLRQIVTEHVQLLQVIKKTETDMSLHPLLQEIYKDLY

[7] = target: T4, Peroxisome proliferator-activated receptor gamma (Homo sapiens); assay: Ratio between agonistic efficacy in PPAR gamma; assay type: functional; details: Cercopithecidae
[8] = target: T1, Retinoic acid receptor RXR-alpha; assay: Effective concentration required for agonistic activity in CV-1 cells expressing RXR-alpha; assay type: functional, cell-based, Cercopithecidae

Row | SMILES | EC50 [1] [nM] | Efficacy [2] [%] | Efficacy [3] [%] | Ki [4] [nM] | Ki [5] [nM] | Ratio [6] | Ratio [7] | EC50 [8] [nM] | Synergy (Cercopithecidae)
1 | CCCCOc1c(-c2cccc3[nH]c(/C(C)=C/C(=O)O)cc23)cc(C(C)C)cc1C(C)C | 3980 | 0.51 | 64 |  |  | 893 | 24.9 |  | 1.1
2 | CCOc1c(\C(C)=C/C=C/C(C)=C/C(=O)O)cc(C(C)C)cc1C(C)C |  | 58 | 7 |  | > 10000 | 8 | 38 |  | 5
3 | C/C(=C\C(=O)O)c1ccc2scc(-c3cc(C(C)C)cc(C(C)C)c3OCCCF)c2c1 | 4150 | 1.78 | 48 | 395 | > 10000 | 1480 | 123 |  | 1.5
4 | CCOc1c(-c2[nH]nc3ccc(/C(C)=C/C(=O)O)cc23)cc(C(C)C)cc1C(C)C |  | 43 | 7 |  |  | 118 | 168 |  | 2.4
5 | COc1c(-c2csc3ccc(/C(C)=C/C(=O)O)cc23)cc(C(C)C)cc1C(C)C |  | 65.4 | 0 | 29.6 | > 10000 | 224 | 114 | 914 | 2.7
6 | CCOc1c(-c2csc3cnc(/C(C)=C/C(=O)O)cc23)cc(C(C)C)cc1C(C)C |  | 15.1 | 9 |  |  | 347 | 127 | 1440 | 2
7 | C/C(=C\C(=O)O)c1ccc2[nH]cc(-c3cc(C(C)(C)C)cc(C(C)(C)C)c3OCC(F)F)c2c1 | 66.3 | 15 | 41 | 1.6 | > 10000 | 21.9 | 233 | 65 | 3
8 | CCCCOc1c(\C(C)=C/C=C/C(C)=C/C(=O)O)cc(C(C)C)cc1C(C)C | 4 | 2 | 91 |  | > 10000 | 1890 | 12 |  | 1
9 | CCCOc1c(-c2c[nH]c3ccc(/C(C)=C/C(=O)O)cc23)cc(C(C)(C)C)cc1C(C)(C)C | 30.1 | 7 | 81 | 1.6 | > 10000 | 7 | 173 |  | 3.4
10 | CCCCOc1c(-c2c[nH]c3ccc(/C(C)=C/C(=O)O)cc23)cc(C(C)C)cc1C(C)C | 21.1 | 1.7 | 87 | 7.4 | > 10000 | 15 | 256 |  | 1.3
11 | CCOc1c(-c2cnc3ccc(/C(C)=C/C(=O)O)cn23)cc(C(C)C)cc1C(C)C |  | 7.93 | 9 | 2080 | > 10000 | 425 | 81.8 |  | 1.5
12 | CCOc1c(-c2n[nH]c3ccc(/C(C)=C/C(=O)O)cc23)cc(C(C)C)cc1C(C)C |  |  |  | 69.2 | > 10000 |  |  | 235 | 

The next lines start with results.

Row | EC50 [1] [nM] | Efficacy [2] [%] | Efficacy [3] [%] | Ki [4] [nM] | Ki [5] [nM] | Ratio [6] | Ratio [7] | EC50 [8] [nM] | SMILES | Synergy (Cercopithecidae)
13 | 6.4 | 4 | 84 | 2.7 | > 10000 | 3.1 | 60 |  | C/C(=C/C=C/C(C)=C/C(=O)O)c1cc(C(C)(C)C)cc(C(C)(C)C)c1OCCCF | 1.4
14 | 1530 | 2.52 | 86 | 740 | > 10000 | 612 | 49 |  | CCCCOc1c(-c2cn(C)c3ccc(/C(C)=C/C(=O)O)cc23)cc(C(C)C)cc1C(C)C | 2.5
15 | 26.4 | 1 | 93 | 3.2 | > 10000 | 8.9 | 105 |  | CCCCOc1c(-c2c[nH]c3ccc(/C(C)=C/C(=O)O)cc23)cc(C(C)(C)C)cc1C(C)(C)C | 2.3
16 |  | 37.4 | 0 | 131 | > 10000 | 384 | 112 | 1440 | C/C(=C\C(=O)O)c1ccc2scc(-c3cc(C(C)C)cc(C(C)C)c3O)c2c1 | 3.5
17 |  | 36 | 24 | 648 | > 10000 | 306 | 65 | 1020 | CCOc1c(-c2noc3ccc(/C(C)=C/C(=O)O)cc23)cc(C(C)C)cc1C(C)C | 1.7
